Source: publication PMC5400251, “Effect of quinoline based 1,2,3-triazole and its structural analogues on growth and virulence attributes of Candida albicans” (PLoS ONE, 2017)

Tests used:
[1] = test system: C. albicans ATCC 90028, C. albicans D27 (FLC-susceptible) and C. albicans D15.9 (FLC-resistant); experiment: Time kill curve study, three strains; format: cell-based; details: for Fungicidal or fungistatic nature: time kill curves, at 2MIC
Method: Time-kill curves were used for testing the fungicidal or fungistatic nature of the lead inhibitors 3a and 3b. The experimental procedure was performed according to the method reported by Wang et al.. C. albicans ATCC 90028, C. albicans D27 (FLC-susceptible) and C. albicans D15.9 (FLC-resistant) strains were used as test organisms. Fluconazole was used as a positive control. Freshly prepared sterile YEPD medium was inoculated by fresh culture (approx. 2×10^3 cells) of test organisms in different conical flasks. The cells were exposed to the test compounds at 2MIC, MIC and MIC/2 values, separately. All the conical flasks having different sets of test compounds and concentrations were incubated at 37°C and 160 rpm. At predetermined time points (0, 4, 12, 24, and 48 h after incubation with agitation at 37°C), a 100-μL aliquot was removed from every solution and appropriately diluted in sterile water. A 100-μl aliquot from each dilution was spread over the YEPD agar plate. Colony counts were determined after incubation at 37°C for 24 h. All the time-kill curve experiments were conducted in duplicate and mean colony count data (log10 CFU/mL) were plotted as a function of time for each strain.

[2] = molecular target: T1, plasma membrane H+ ATPase (Candida albicans, UniProt P28877); experiment: Measurement of intracellular pH (pHi); format: cell-based, C. albicans D15.9 (FLC-resistant); details: 100 μg/mL; untreated 6.4
T1 construct: endogenous in cells; host or cells: C. albicans ATCC 90028; clinical isolates C. albicans D27 (FLC-susceptible) and D15.9 (FLC-resistant); mid-log phase whole cells
T1 sequence (P28877 whole entry): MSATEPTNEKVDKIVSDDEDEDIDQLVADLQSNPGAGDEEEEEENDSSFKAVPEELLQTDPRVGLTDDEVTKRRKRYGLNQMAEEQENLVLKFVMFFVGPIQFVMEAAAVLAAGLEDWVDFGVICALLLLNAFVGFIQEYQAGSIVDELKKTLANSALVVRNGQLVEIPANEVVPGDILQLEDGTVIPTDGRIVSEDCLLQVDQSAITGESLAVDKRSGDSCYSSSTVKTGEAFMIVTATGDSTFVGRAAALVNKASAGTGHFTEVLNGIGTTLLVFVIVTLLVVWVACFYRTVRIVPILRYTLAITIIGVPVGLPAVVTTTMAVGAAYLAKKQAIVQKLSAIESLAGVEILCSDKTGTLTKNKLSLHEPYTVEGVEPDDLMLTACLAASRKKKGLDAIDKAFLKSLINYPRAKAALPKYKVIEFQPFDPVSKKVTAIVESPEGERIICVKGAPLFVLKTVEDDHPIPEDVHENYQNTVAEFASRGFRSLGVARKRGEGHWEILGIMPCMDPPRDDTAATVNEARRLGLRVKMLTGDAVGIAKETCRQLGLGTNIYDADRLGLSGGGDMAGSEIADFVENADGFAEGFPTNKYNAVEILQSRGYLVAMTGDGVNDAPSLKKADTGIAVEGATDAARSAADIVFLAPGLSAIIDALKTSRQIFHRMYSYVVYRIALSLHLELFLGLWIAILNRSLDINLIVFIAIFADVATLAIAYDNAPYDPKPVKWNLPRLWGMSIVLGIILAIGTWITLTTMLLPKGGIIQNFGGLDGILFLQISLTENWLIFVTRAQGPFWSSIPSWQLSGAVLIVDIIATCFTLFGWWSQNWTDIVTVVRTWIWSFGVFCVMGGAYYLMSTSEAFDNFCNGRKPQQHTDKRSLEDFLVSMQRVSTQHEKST
Method: (§1) In yeast cells, plasma membrane H^+-ATPase helps to maintain internal pH between 6.0 and 7.5. Intracellular pH (pHi) was measured as reported earlier by Manzoor et al.. Mid-log phase cells were harvested from SD medium and washed thrice with PBS. Subsequently, cells (0.1 g) were suspended in 5 mL solution of 0.1 M KCl, and 0.1 mM CaCl2 in distilled water. Compounds 3a and 3b were added to the suspension at a desired concentration of 100 μg/mL. […] Initial pH of the suspension was adjusted to 7.0 in each case and incubated for 30 min at 37°C with constant stirring. After incubation, the pH of suspension was again adjusted to 7.0 followed by the addition of nystatin (20 μM) and incubation at 37°C for 1 h. The change in pH of the suspension was monitored on a pH meter with constant stirring. The value of external pH at which nystatin permeabilization induced no further shift was taken as an estimate of pHi.

[3] = test system: C. albicans ATCC 90028 (Standard); experiment: Disk diffusion assay; format: cell-based; details: 48 h
Method: (§2) Disk diffusion assay was performed using C. albicans ATCC 90028 (standard), the two clinical isolates, C. albicans D27 (FLC-susceptible), and C. albicans D15.9 (FLC-resistant) for the lead inhibitors 3a and 3b. The C. albicans cells were inoculated into liquid SD medium and grown over night at 37°C. The cells were then centrifuged at 3000 rpm for 5 min, washed three times with PBS and then suspended in PBS again. Approximately, 10^5 cells/mL were inoculated into molten SD agar medium at 42°C and poured into 100-mm-diameter petriplates. Sterilized 4 mm disks of Whatman paper were placed on solid agar and 1, 2, and 4 μL of 3a and 2, 4, and 8 μL of 3b from the stock solution of 10 mg/mL were spotted on the disk. […] The diameter of zone of inhibition (ZOI) was recorded in millimetres after 48 h and was compared with that of control. This experiment was repeated thrice and values were shown in terms of mean ±standard error of mean.

[4] = test system: C. albicans D15.9 (FLC-resistant); experiment: Disk diffusion assay; format: cell-based; details: 48 h
Method: as §2

[5] = test system: C. albicans ATCC 90028, C. albicans D27 and C. albicans D15.9; experiment: Growth assay (growth curve), all three strains; format: cell-based
Method: The C. albicans cells were freshly revived by subculture on the SD agar plate. A loopful of inoculum was introduced into the SD broth and cells were grown for 16 h at 37°C before use. Approximately 2×10^3 cells/mL were then inoculated into the freshly prepared 50 mL sterile SD medium. […] At predetermined time periods (0, 2, 4, 6, 8, 10, 12, 14, 16, 18, 20 22, and 24 after incubation with agitation at 37°C), 1 mL aliquot of each sample was removed from the conical flask and growth was measured tubidometrically at 600 nm using Thermo Multiskan spectrophotometer. Optical density was recorded for each concentration against time (h).

[6] = molecular target: T1, plasma membrane H+ ATPase; experiment: Proton extrusion measurement (H+ efflux); format: cell-based, C. albicans D27 (FLC-susceptible)
Method: (§3) The proton pumping activity of C. albicans was determined by monitoring acidification of external medium by measuring pH as describe earlier. In brief, the mid-log phase cells were harvested from SD medium by centrifugation at 3000 rpm for 15 min which is followed by three washings with phosphate buffer saline (PBS). A solution containing 0.1 M KCl and 0.1 mM CaCl2 in distilled water was prepared. Compounds 3a and 3b at the concentrations of 50 and 100 μg/mL were separately added in this solution. […] Initial pH was adjusted to 7.0 using 0.01 M HCl/NaOH. Approximately 0.2 g of cells were suspended in each set of solution. Suspension was kept in a double-jacketed glass container with constant stirring. Again, the pH of suspension was maintained as 7.0 for 1 min by using 0.01 N NaOH. The rate of H^+ extrusion was then monitored and calculated from the volume of 0.01 N NaOH consumed per min per mg weight of cells. Glucose has been reported as the stimulator of proton extrusion pump. Therefore above experiment was also repeated in the presence of 5 mM of glucose.

[7] = molecular target: T1, plasma membrane H+ ATPase; experiment: Measurement of intracellular pH (pHi); format: cell-based, C. albicans D27 (FLC-susceptible); details: 100 μg/mL; untreated 6.6
Method: as §1

[8] = molecular target: T1, plasma membrane H+ ATPase; experiment: cell-based; set-up: species or system C. albicans D15.9 (FLC-resistant); details: for inhibition at 100 µg/mL: read-out: Inhibition of H+ extrusion
Method: as §3

[9] = Candida albicans, ATCC90028, 20 μg per disk
[10] = Candida albicans, ATCC90028, 40 μg per disk
[11] = 50 μg/mL in presence of glucose (5 mM)
[12] = 100 μg/mL in presence of glucose (5 mM)
[13] = in the presence of glucose (5 mM), 100 μg/mL, read-out: Inhibition of H+ extrusion rate
[14] = read-out: Inhibition of H+ extrusion

| SMILES | Fungicidal or fungistatic nature [1] | Intracellular pH (pHi) [2] | zone of inhibition at 20 µg/disc [3, 9] | zone of inhibition at 40 µg/disc [3, 10] | zone of inhibition at 20 µg/disc ([4]; Candida albicans) | zone of inhibition at 40 µg/disc ([4]; Candida albicans) | Range of relative H+ efflux rate [6, 11] | Range of relative H+ efflux rate ([6]; 50 μg/mL, no glucose) | Range of relative H+ efflux rate [6, 12] | Range of relative H+ efflux rate ([6]; 100 μg/mL, no glucose) | inhibition at 100 µg/mL [6, 13] | inhibition at 100 µg/mL [6, 14] | Intracellular pH (pHi) [7] | Range of relative H+ efflux rate [8, 11] | Range of relative H+ efflux rate ([8]; 50 μg/mL, no glucose) | Range of relative H+ efflux rate [8, 12] | Range of relative H+ efflux rate ([8]; 100 μg/mL, no glucose) | inhibition at 100 µg/mL [8] | further results |
| --- | --- | --- | --- | --- | --- | --- | --- | --- | --- | --- | --- | --- | --- | --- | --- | --- | --- | --- | --- |
| c1ccc(Cn2cc(COc3cccc4cccnc34)nn2)cc1 [Compound 3a] | fungicidal | 5.4 | 35 mm | 39 mm | 26 mm | 32 mm | 21.60 ± 1.0 ×10^−6 mol min^−1 mg cells^−1 | 20.00 ± 1.0 ×10^−6 mol min^−1 mg cells^−1 | 19.30 ± 0.9 ×10^−6 mol min^−1 mg cells^−1 | 16.60 ± 0.8 ×10^−6 mol min^−1 mg cells^−1 | 52% | 45% | 5.2 | 28.30 ± 1.4 ×10^−6 mol min^−1 mg cells^−1 | 21.60 ± 1.0 ×10^−6 mol min^−1 mg cells^−1 | 20.00 ± 1.0 ×10^−6 mol min^−1 mg cells^−1 | 16.70 ± 0.8 ×10^−6 mol min^−1 mg cells^−1 | 40% | Change in CFU/mL ([1]; 2MIC, after 48 h, all three test strains): significant decrease in CFU/mL; Zone of Inhibition ([3]; 20 μg per disk): 35± 0.97 mm; Zone of Inhibition ([3]; 40 μg per disk): 39± 1.12 mm; zone of inhibition at 10 µg/disc ([3]; Candida albicans, ATCC90028, 10 μg per disk): 28 ± 0.72 mm; Zone of Inhibition ([4]; 20 μg per disk): 26± 073 mm; Zone of Inhibition ([4]; 40 μg per disk): 32± 1.28 mm; zone of inhibition at 10 µg/disc ([4]; Candida albicans): 20 ± 0.21 mm; Lag phase (no growth) ([5]; 2MIC, MIC and MIC/2, all three strains): more than 24 h |
| Clc1ccc(OCc2cn(Cc3ccccc3)nn2)c2ncccc12 [Compound 3b, 8-((1-Benzyl-1H-1,2,3-triazol-4-yl)methoxy)-5-chloroquinoline] | fungistatic | 4.7 | 18 ± 0.72 mm | 25 ± 0.9 mm | 15 ± 0.21 mm | 18 ± 0.09 mm | 22.30 ± 1.1 ×10^−6 mol min^−1 mg cells^−1 | 17.60 ± 0.8 ×10^−6 mol min^−1 mg cells^−1 | 19.30 ± 0.9 ×10^−6 mol min^−1 mg cells^−1 | 16.00 ± 0.8 ×10^−6 mol min^−1 mg cells^−1 | 52% | 65% | 5.1 | 25.00 ± 1.2 ×10^−6 mol min^−1 mg cells^−1 | 18.30 ± 0.9 ×10^−6 mol min^−1 mg cells^−1 | 21.00 ± 1.0 ×10^−6 mol min^−1 mg cells^−1 | 16.00 ± 0.8 ×10^−6 mol min^−1 mg cells^−1 | 42% | Change in CFU/mL with time interval ([1]; dose dependent): only slight increase in CFU/mL; Zone of Inhibition ([3]; 80 μg per disk): 29± 0.93 mm; zone of inhibition at 80 µg/disc ([3]; Candida albicans, ATCC90028, 80 μg per disk): 29 mm; Zone of Inhibition ([4]; 80 μg per disk): 22± 0.79 mm; zone of inhibition at 80 µg/disc ([4]; Candida albicans): 22 mm; Growth inhibition ([5]; at 2MIC and MIC): significant growth inhibition |
